Test results from patent publication US20250154144A1 (CHILDREN'S HOSPITAL MEDICAL CENTER, priority 2021, published 2025).
Where two headings read alike, the source gives them in different places.

Legend:
MOLM14(D835Y) cells = format: cell-based; conditions: MOLM14(D835Y) cells; for Excess HSA Score: 10 × 10
THP1 cells = experiment: Combination drug screening, Cell Titer Glo, 10 × 10 matrix, THP1 cells; format: cell-based; conditions: single compound range 0-10,000 nM or 0-20,000 nM
[1] = combination with Venetoclax (ABT-199)

With COc1cc2ncc(-c3ccnc(N[C@@H]4CCCNC4)n3)n2cc1C(C)(C)O [Compound 44, (R)-2-(7-methoxy-3-(2-(piperidin-3-ylamino)pyrimidin-4-yl)imidazo[1,2-a]pyridin-6-yl)propan-2-ol] the “Excess HSA Score” value (MOLM14(D835Y) cells; combination with (+)-BAY-1251152) was −808.4, the “Excess HSA Score” value (MOLM14(D835Y) cells; combination with AMG-232) was −620.9 and the “Excess HSA Score” value (MOLM14(D835Y) cells; combination with AZD-5363) was −290.5. For the same compound, the “Excess HSA Score” value (MOLM14(D835Y) cells; combination with Eprenetapopt/APR-246) was 75.21, the “Excess HSA Score” value (MOLM14(D835Y) cells; combination with Ivosidenib) was 21.01 and the “Excess HSA Score” value (MOLM14(D835Y) cells; combination with Lenalidomide) was 270.3924. For the same compound, the “Excess HSA Score” value (MOLM14(D835Y) cells; combination with Palbociclib) was −370.2, the “Excess HSA Score” value (MOLM14(D835Y) cells; combination with Prednisolone) was 409.4 and the “Excess HSA Score” value (MOLM14(D835Y) cells; combination with SNDX-5613) was 3.1084. For the same compound, the “Excess HSA Score” value (MOLM14(D835Y) cells; combination with TNO-155) was −655.3, the “Excess HSA Score” value (MOLM14(D835Y) cells; combination with Trametinib) was −420 and the “Excess HSA Score” value (MOLM14(D835Y) cells; combination with Ulixertinib) was −254.1. The “Excess HSA Score” value (MOLM14(D835Y) cells; [1]) was −1120.4885, the Comments (MOLM14(D835Y) cells; combination with SNDX-5613) was “Antagonistic” and the Comments (MOLM14(D835Y) cells; [1]) was “Synergistic”. For the same compound, the Comments (THP1 cells; with (+)-BAY-1251152) was “Synergistic”, the “Excess HSA Score” value (THP1 cells; with (+)-BAY-1251152) was −516.5 and the Comments (THP1 cells; with AMG-232) was “Antagonistic”. The “Excess HSA Score” value (THP1 cells; with AMG-232) was 733.5, the Comments (THP1 cells; with AZD-5363) was “Antagonistic” and the “Excess HSA Score” value (THP1 cells; with AZD-5363) was 35.78. The Comments (THP1 cells; with Eprenetapopt/APR-246) was “Antagonistic”, the “Excess HSA Score” value (THP1 cells; with Eprenetapopt/APR-246) was 460.1 and the Comments (THP1 cells; with Ivosidenib) was “Synergistic”. For the same compound, the “Excess HSA Score” value (THP1 cells; with Ivosidenib) was −47.26, the Comments (THP1 cells; with Lenalidomide) was “Antagonistic” and the “Excess HSA Score” value (THP1 cells; with Lenalidomide) was 877.5. The Comments (THP1 cells; with Palbociclib) was “Synergistic”, the “Excess HSA Score” value (THP1 cells; with Palbociclib) was −764 and the Comments (THP1 cells; with Prednisolone) was “Antagonistic”. The “Excess HSA Score” value (THP1 cells; with Prednisolone) was 68.4575, the Comments (THP1 cells; with SNDX-5613) was “Antagonistic” and the “Excess HSA Score” value (THP1 cells; with SNDX-5613) was 337.7. The Comments (THP1 cells; with TNO-155) was “Synergistic”, the “Excess HSA Score” value (THP1 cells; with TNO-155) was −62.85 and the Comments (THP1 cells; with Trametinib) was “Synergistic”. The “Excess HSA Score” value (THP1 cells; with Trametinib) was −453.2, the Comments (THP1 cells; with Ulixertinib) was “Synergistic” and the “Excess HSA Score” value (THP1 cells; with Ulixertinib) was −572.2. For the same compound, the Comments (THP1 cells; with Venetoclax (ABT-199)) was “Synergistic” and the “Excess HSA Score” value (THP1 cells; with Venetoclax (ABT-199)) was −1159.
